Values after ≈ are worked out from the molar mass of the structure shown.
Tests used:
[1] = Hemolytic activity in human red blood cells at 400 ug/ml incubated for 45 mins by spectrophotometric analysis relative to control; type: toxicity, cell-based, Erythrocyte; conditions: red blood cells (erythrocytes), at 400 µg/mL, read-out: Activity
[2] = Cytotoxicity against human HepG2 cells incubated for 40 hrs by celltiter-glo luminescent cell viability assay; type: toxicity, cell-based
[3] = test system: Escherichia coli; experiment: Antibacterial activity against wild-type Escherichia coli ATCC 25922 assessed as inhibition of bacterial growth incubated for 18 hrs; type: functional; conditions: read-out: MIC100
[4] = test system: Klebsiella pneumoniae; experiment: Antibacterial activity against wild-type Klebsiella pneumoniae ATCC 13883 assessed as inhibition of bacterial growth incubated for 18 hrs; type: functional; conditions: read-out: MIC100

| SMILES | hemolysis at 0.75 h, 400 ug/ml [1] | IC50 at 40 h [2] | MIC [3] | MIC [4] |
| --- | --- | --- | --- | --- |
| CC[C@H](C)[C@@H](NC(=O)[C@H](CC1CCCCC1)NC(=O)[C@H](CCC(=O)O)NC(=O)[C@H](Cc1ccccc1)NC(=O)[C@@H](CCN)NC(=O)[C@H](CCN)NC(=O)[C@H](CO)NC(=O)[C@@H](Cc1c[nH]c2ccccc12)NC(=O)[C@@H](CO)NC(=O)CNC(=O)[C@@H](CCN)NC(=O)[C@H](NC(=O)[C@H](C)N)C(C)C)C(=O)N[C@@H](C)C(=O)O [listing 1 of 2 here] | 59% | 9 µg/mL (≈ 5.92 µM) | – | – |
| CC[C@H](C)[C@@H](NC(=O)[C@@H](NC(=O)[C@H](CCC(=O)O)NC(=O)[C@H](CC1CCCCC1)NC(=O)[C@@H](CCN)NC(=O)[C@H](CCN)NC(=O)[C@H](CO)NC(=O)[C@@H](Cc1c[nH]c2ccccc12)NC(=O)[C@@H](CO)NC(=O)CNC(=O)[C@@H](CCN)NC(=O)[C@H](NC(=O)[C@H](C)N)C(C)C)C(C)C)C(=O)N[C@@H](C)C(=O)O [listing 1 of 2 here] | – | – | 4 µg/mL (≈ 2.72 µM) | 2 µg/mL (≈ 1.36 µM) |
| CC[C@H](C)[C@@H](NC(=O)[C@@H](NC(=O)[C@H](CCC(=O)O)NC(=O)[C@H](Cc1ccccc1)NC(=O)[C@@H](CCN)NC(=O)[C@H](CCN)NC(=O)[C@H](CO)NC(=O)[C@@H](Cc1c[nH]c2ccccc12)NC(=O)[C@@H](CO)NC(=O)CNC(=O)[C@@H](C)NC(=O)[C@H](N)C(C)C)C(C)C)C(=O)N[C@@H](C)C(=O)O | 0.1% | > 170 µg/mL | > 64 µg/mL | > 64 µg/mL |
| CC[C@H](C)[C@@H](NC(=O)[C@@H](NC(=O)[C@H](CCC(=O)O)NC(=O)[C@H](Cc1ccccc1)NC(=O)[C@@H](C)NC(=O)[C@H](CCN)NC(=O)[C@H](CO)NC(=O)[C@@H](Cc1c[nH]c2ccccc12)NC(=O)[C@@H](CO)NC(=O)CNC(=O)[C@@H](CCN)NC(=O)[C@H](N)C(C)C)C(C)C)C(=O)N[C@@H](C)C(=O)O | 0% | > 170 µg/mL | > 64 µg/mL | 64 µg/mL (≈ 46.9 µM) |
| CC[C@H](C)[C@@H](NC(=O)[C@@H](NC(=O)[C@H](CCC(=O)O)NC(=O)[C@H](C)NC(=O)[C@@H](CCN)NC(=O)[C@H](CCN)NC(=O)[C@H](CO)NC(=O)[C@@H](Cc1c[nH]c2ccccc12)NC(=O)[C@@H](CO)NC(=O)CNC(=O)[C@@H](CCN)NC(=O)[C@H](NC(=O)[C@H](C)N)C(C)C)C(C)C)C(=O)N[C@@H](C)C(=O)O | 0% | > 170 µg/mL | > 64 µg/mL | > 64 µg/mL |
| CC[C@H](C)[C@@H](NC(=O)[C@@H](NC(=O)[C@H](CCC(=O)O)NC(=O)[C@H](Cc1ccccc1)NC(=O)[C@@H](CCN)NC(=O)[C@H](CCN)NC(=O)[C@H](CO)NC(=O)[C@@H](Cc1c[nH]c2ccccc12)NC(=O)[C@@H](CCN)NC(=O)CNC(=O)[C@@H](CCN)NC(=O)[C@H](N)C(C)C)C(C)C)C(=O)N[C@@H](C)C(=O)O | 0% | > 170 µg/mL | > 64 µg/mL | > 64 µg/mL |
| CC[C@H](C)[C@@H](NC(=O)[C@@H](NC(=O)[C@H](CCC(=O)O)NC(=O)[C@H](Cc1ccccc1)NC(=O)[C@@H](CCN)NC(=O)[C@H](CCN)NC(=O)[C@H](CO)NC(=O)[C@@H](Cc1c[nH]c2ccccc12)NC(=O)[C@@H](CO)NC(=O)[C@H](C)NC(=O)[C@@H](CCN)NC(=O)[C@H](NC(=O)[C@H](C)N)C(C)C)C(C)C)C(=O)N[C@@H](C)C(=O)O | 31.9% | 74 µg/mL (≈ 50 µM) | 16 µg/mL (≈ 10.8 µM) | 32 µg/mL (≈ 21.6 µM) |
| CC[C@H](C)[C@@H](NC(=O)[C@@H](NC(=O)[C@H](CCC(=O)O)NC(=O)[C@H](Cc1ccccc1)NC(=O)[C@@H](CCN)NC(=O)[C@H](CCN)NC(=O)[C@H](CO)NC(=O)[C@@H](Cc1c[nH]c2ccccc12)NC(=O)[C@@H](CO)NC(=O)CNC(=O)[C@@H](CCN)NC(=O)[C@H](NC(=O)[C@@H](N)CO)C(C)C)C(C)C)C(=O)N[C@@H](C)C(=O)O | 4.2% | > 170 µg/mL | 32 µg/mL (≈ 21.6 µM) | 16 µg/mL (≈ 10.8 µM) |
| CC[C@H](C)[C@@H](NC(=O)[C@@H](NC(=O)[C@H](CCC(=O)O)NC(=O)[C@H](Cc1ccccc1)NC(=O)[C@@H](CCN)NC(=O)[C@H](CCN)NC(=O)[C@H](CO)NC(=O)[C@@H](Cc1c[nH]c2ccccc12)NC(=O)[C@@H](CO)NC(=O)CNC(=O)[C@@H](CCN)NC(=O)[C@H](N)C(C)(C)C)C(C)C)C(=O)N[C@@H](C)C(=O)O | 13% | 33 µg/mL (≈ 23.4 µM) | 32 µg/mL (≈ 22.7 µM) | 16 µg/mL (≈ 11.4 µM) |
| CC[C@H](C)[C@@H](NC(=O)[C@@H](NC(=O)[C@H](CCC(=O)O)NC(=O)[C@H](Cc1cccc2ccccc12)NC(=O)[C@@H](CCN)NC(=O)[C@H](CCN)NC(=O)[C@H](CO)NC(=O)[C@@H](Cc1c[nH]c2ccccc12)NC(=O)[C@@H](CO)NC(=O)CNC(=O)[C@@H](CCN)NC(=O)[C@H](NC(=O)[C@H](C)N)C(C)C)C(C)C)C(=O)N[C@@H](C)C(=O)O | 52.9% | 83 µg/mL (≈ 54.8 µM) | 2 µg/mL (≈ 1.32 µM) | 1 µg/mL (≈ 0.66 µM) |
| CC[C@H](C)[C@@H](NC(=O)[C@@H](NC(=O)[C@H](CCC(=O)O)NC(=O)[C@H](Cc1ccccc1)NC(=O)[C@@H](CCN)NC(=O)[C@H](CCN)NC(=O)[C@H](CO)NC(=O)[C@@H](Cc1c[nH]c2ccccc12)NC(=O)[C@@H](CO)NC(=O)CNC(=O)[C@@H](C)NC(=O)[C@H](NC(=O)[C@H](C)N)C(C)C)C(C)C)C(=O)N[C@@H](C)C(=O)O | 0.6% | > 170 µg/mL | > 64 µg/mL | 64 µg/mL (≈ 44.5 µM) |
| CC[C@H](C)[C@@H](NC(=O)[C@@H](NC(=O)[C@H](CCC(=O)O)NC(=O)[C@H](Cc1ccccc1)NC(=O)[C@@H](CCN)NC(=O)[C@H](CCN)NC(=O)[C@H](CO)NC(=O)[C@@H](Cc1c[nH]c2ccccc12)NC(=O)[C@@H](CO)NC(=O)CNC(=O)[C@H](N)CCN)C(C)C)C(=O)N[C@@H](C)C(=O)O | 0% | > 170 µg/mL | > 64 µg/mL | > 64 µg/mL |
| CC[C@H](C)[C@@H](NC(=O)[C@@H](NC(=O)[C@H](CCC(=O)O)NC(=O)[C@H](Cc1ccccc1)NC(=O)[C@@H](CCN)NC(=O)[C@H](CCN)NC(=O)[C@H](CO)NC(=O)[C@@H](Cc1c[nH]c2ccccc12)NC(=O)[C@@H](CO)NC(=O)CNC(=O)[C@@H](CCN)NC(=O)[C@@H](C)N)C(C)C)C(=O)N[C@@H](C)C(=O)O | 6.4% | 131 µg/mL (≈ 95.9 µM) | > 64 µg/mL | > 64 µg/mL |
| CC(C)[C@H](NC(=O)[C@H](CCC(=O)O)NC(=O)[C@H](Cc1ccccc1)NC(=O)[C@@H](CCN)NC(=O)[C@H](CCN)NC(=O)[C@H](CO)NC(=O)[C@@H](Cc1c[nH]c2ccccc12)NC(=O)[C@@H](CO)NC(=O)CNC(=O)[C@@H](CCN)NC(=O)[C@H](N)C(C)C)C(=O)N[C@H](C)C(=O)N[C@@H](C)C(=O)O | 4.3% | > 170 µg/mL | > 64 µg/mL | 64 µg/mL (≈ 47.3 µM) |
| CC[C@H](C)[C@@H](NC(=O)[C@@H](NC(=O)[C@H](CCC(=O)O)NC(=O)[C@H](Cc1ccccc1)NC(=O)[C@@H](CCN)NC(=O)[C@H](CCN)NC(=O)[C@H](CO)NC(=O)[C@@H](Cc1c[nH]c2ccccc12)NC(=O)[C@@H](C)NC(=O)CNC(=O)[C@@H](CCN)NC(=O)[C@H](NC(=O)[C@H](C)N)C(C)C)C(C)C)C(=O)N[C@@H](C)C(=O)O | 0% | 139 µg/mL (≈ 95.9 µM) | 16 µg/mL (≈ 11 µM) | 32 µg/mL (≈ 22.1 µM) |
| CC[C@H](C)[C@H](NC(=O)[C@H](CCC(=O)O)NC(=O)[C@H](Cc1ccccc1)NC(=O)[C@@H](CCN)NC(=O)[C@H](CCN)NC(=O)[C@H](CO)NC(=O)[C@@H](Cc1c[nH]c2ccccc12)NC(=O)[C@@H](CO)NC(=O)CNC(=O)[C@@H](CCN)NC(=O)[C@H](N)C(C)C)C(=O)N[C@@H](C(=O)N[C@@H](C)C(=O)O)[C@@H](C)CC | 70.6% | > 60 µg/mL | 32 µg/mL (≈ 22.7 µM) | 16 µg/mL (≈ 11.4 µM) |
| CC[C@H](C)[C@@H](NC(=O)[C@@H](NC(=O)[C@H](CO)NC(=O)[C@H](Cc1ccccc1)NC(=O)[C@@H](CCN)NC(=O)[C@H](CCN)NC(=O)[C@H](CO)NC(=O)[C@@H](Cc1c[nH]c2ccccc12)NC(=O)[C@@H](CO)NC(=O)CNC(=O)[C@@H](CCN)NC(=O)[C@H](N)C(C)C)C(C)C)C(=O)N[C@@H](C)C(=O)O [listing 1 of 2 here] | – | – | > 64 µg/mL | > 64 µg/mL |
| CC(C)[C@H](NC(=O)[C@H](CCC(=O)O)NC(=O)[C@H](Cc1ccccc1)NC(=O)[C@@H](CCN)NC(=O)[C@H](CCN)NC(=O)[C@H](CO)NC(=O)[C@@H](Cc1c[nH]c2ccccc12)NC(=O)[C@@H](CO)NC(=O)CNC(=O)[C@@H](CCN)NC(=O)[C@H](N)C(C)C)C(=O)N[C@@H](C(=O)N[C@@H](C)C(=O)O)C(C)(C)C | 14.4% | – | 32 µg/mL (≈ 22.9 µM) | 8 µg/mL (≈ 5.74 µM) |
| CC[C@H](C)[C@@H](NC(=O)[C@@H](NC(=O)[C@H](CO)NC(=O)[C@H](Cc1ccccc1)NC(=O)[C@@H](CCN)NC(=O)[C@H](CCN)NC(=O)[C@H](CO)NC(=O)[C@@H](Cc1c[nH]c2ccccc12)NC(=O)[C@@H](CO)NC(=O)CNC(=O)[C@@H](CCN)NC(=O)[C@H](N)C(C)C)C(C)C)C(=O)N[C@@H](C)C(=O)O [listing 2 of 2 here] | 0.4% | > 170 µg/mL | – | – |
| CC[C@H](C)[C@@H](NC(=O)[C@H](CC1CCCCC1)NC(=O)[C@H](CCC(=O)O)NC(=O)[C@H](Cc1ccccc1)NC(=O)[C@@H](CCN)NC(=O)[C@H](CCN)NC(=O)[C@H](CO)NC(=O)[C@@H](Cc1c[nH]c2ccccc12)NC(=O)[C@@H](CO)NC(=O)CNC(=O)[C@@H](CCN)NC(=O)[C@H](NC(=O)[C@H](C)N)C(C)C)C(=O)N[C@@H](C)C(=O)O [listing 2 of 2 here] | – | – | 2 µg/mL (≈ 1.32 µM) | 2 µg/mL (≈ 1.32 µM) |
| CC[C@H](C)[C@@H](NC(=O)[C@@H](NC(=O)[C@H](CCC(=O)O)NC(=O)[C@H](CC1CCCCC1)NC(=O)[C@@H](CCN)NC(=O)[C@H](CCN)NC(=O)[C@H](CO)NC(=O)[C@@H](Cc1c[nH]c2ccccc12)NC(=O)[C@@H](CO)NC(=O)CNC(=O)[C@@H](CCN)NC(=O)[C@H](NC(=O)[C@H](C)N)C(C)C)C(C)C)C(=O)N[C@@H](C)C(=O)O [listing 2 of 2 here] | – | 37 µg/mL (≈ 25.1 µM) | – | – |
